In assay [1] the target is T1, Catechol O-methyltransferase (Sus scrofa) (UniProt Q99028).
T1 sequence (whole entry): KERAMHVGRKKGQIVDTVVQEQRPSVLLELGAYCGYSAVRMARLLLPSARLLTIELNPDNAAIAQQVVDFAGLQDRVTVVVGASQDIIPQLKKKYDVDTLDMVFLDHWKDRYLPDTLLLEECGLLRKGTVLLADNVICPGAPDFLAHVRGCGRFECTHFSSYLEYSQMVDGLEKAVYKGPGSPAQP
Description: (§1) Compound was evaluated for reversible inhibition of Catechol O-methyltransferase with saturating AdoMet and variable catechol as substrate (mixed inhibition)

Assay [2] deals with T1, Catechol O-methyltransferase (Sus scrofa). This is another data set of the same source.
Assay [3] has as its target T2, Catechol O-methyltransferase (Sus scrofa, UniProt Q99028).
T2 sequence (Q99028 whole entry): T1 sequence (whole entry)
Kind of assay: In vitro inhibition of Catechol-O-methyltransferase (COMT) from isolated partially purified pig liver enzyme.

For assay [4], the target named is T1, Catechol O-methyltransferase (Sus scrofa). This is another data set of the same source.
Description: as §1
Assay [5] has the same target. The experiment in a line: Compound was evaluated for reversible inhibition of Catechol O-methyltransferase with variable AdoMet and saturating catechol as substrate (uncompetitive inhibition).
The target is the same in assay [6]. The experiment in a line: Compound was evaluated for reversible inhibition of COMT with saturating AdoMet and variable catechol as substrate (mixed inhibition).
In assay [7] the target is T2, Catechol O-methyltransferase. Kind of assay: Compound was evaluated for reversible inhibition of Catechol O-methyltransferase with saturating AdoMet and variable catechol as substrate (Non-competitive inhibition).
For assay [8] the target is unchanged. Kind of assay: Compound was evaluated for reversible inhibition of Catechol O-methyltransferase with variable AdoMet and saturating catechol as substrate (uncompetitive inhibition).

Structures are written as SMILES.

`O=Cc1cc(O)c(O)c([N+](=O)[O-])c1` [3,4-DIHYDROXY-5-NITROBENZALDEHYDE] came in with a KIs in assay [1] of 0.816 µM. Moreover, the figures for the KII in assay [2] and in assay [4] were 1.38e-07 µM and 138 nM, respectively. The compound also gave an IC50 in assay [3] of 2 µM.
For the compound `O=Cc1cc([N+](=O)[O-])cc(O)c1O`, the KIs was found to be 1.2 µM in assay [1] and 7770 nM in assay [5]. For the same compound, half-maximal inhibition in assay [3] (IC50) was put at 2.1 µM. The compound also yielded a KII in assay [4] of 231 nM.
Regarding `O=Cc1c([N+](=O)[O-])ccc(O)c1O`, in assay [1], the KIs came to 4.77 µM. This compound also came in with an IC50 in assay [3] of 10 µM. In assay [4], this compound registered a KII of 909 nM.
In assay [1], `O=Cc1cc(O)c(O)cc1[N+](=O)[O-]` gave a KIs of 2.69 µM. Moreover, inhibition in assay [3] was half-maximal at 8.5 µM (IC50). For the same compound, the KII in assay [4] amounted to 921 nM.
For the compound `O=Cc1ccc(O)c(O)c1[N+](=O)[O-]`, the values for the KIs in assay [1] and in assay [5] were 0.497 µM and 678 nM, respectively. In addition, the KII in assay [6] stood at 168 nM. This compound also gave a concentration for half-maximal inhibition (IC50) in assay [3] of 1.5 µM.
On to `COc1c(O)cc(C=O)cc1[N+](=O)[O-]`, for which the results for the Ki in assay [7] and in assay [8] were 17.2 µM and 13.5 µM, respectively. Moreover, 34 µM corresponded to half-maximal inhibition in assay [3] (IC50).
For `O=Cc1ccc([N+](=O)[O-])c(O)c1O`, the KIs amounted to 0.478 µM in assay [1] and 538 nM in assay [5]. The IC50 in assay [3] stood at 1.5 µM. Also, the KII in assay [4] was 145 nM.
